Measured values published in US10806729B2, “Quinoline derivatives for use in the treatment or prevention of viral infection” (ABIVAX, priority 2015, dated 2020).
Entries after “also recorded” stand apart in the source; their conditions may differ.

Key:
[1] = test system: HIV-1 strains (clade B, clade C and recombinants clades); assay: p24 inhibition in PBMCs infected with different HIV-1 strains (patient isolates); type: cell-based; conditions: 5 μM, 6 days pi, subtype B, C and recombinant viruses
Procedure: FIG. 2. HIV p24 inhibition of Compound 22 from different HIV-1 strains. A) Different HIV-1 strains (clade B, clade C and recombinants clades) were used to infect PBMCs from three different donors in the absence of presence of 5 μM of Compound 22. Supernatant was harvested 6 days pi and viral capsid protein p24 antigen was quantitated using standard ELISA protocol.

YU2 HIV-1 virus = assay: NSG humanized mice infected with YU2 HIV-1 virus, viral load; type: in vivo, mouse
Procedure: Viral load was assessed by measuring viral RNA using the Amplicor HIV-1 Monitor from Roche.
All manipulations of NSG-HIS mice were performed under laminar flow. Gavage of mice was performed daily with a stainless steel gavage needle (Straight 22 Gauge, 1.4 inch in length). […] Mice were monitored three times a week for symptoms or signs of adverse events, according to a standard score sheet.
Mice were infected intraperitoneally i.p. with JR-CSF, 1×10^3 TCID50 per mouse and HIV YU-2, 1×106 TCID50 per mouse. HIV RNA plasma levels were measured by RT-PCR (Amplicor HIV-1 test or AmpliPrep/COBAS TaqMan HIV-1 Test, Roche) at various times after infection.

HIV-1 strain YU2 = assay: HIV-1 p24 production in infected monocyte derived macrophages (ELISA); type: cell-based; conditions: Human immunodeficiency virus 1, Primary macrophage; primary macrophages infected with Yu-2, at 0.1 μM; read-out: inhibition levels of virus replication (p24)
From the text: FIG. 1. Potency of quinoline derivatives to inhibit HIV-1 production in PBMC- and macrophages-infected cells. […] Each point represents 6 donors. B) HIV-1 strain YU2 was used to infect triplicate of monocyte derived-macrophages from different donors in the absence or presence of increasing concentrations of Compound 22. […] Each point represents 8 donors. To generate monocyte derived macrophages (MDMs), monocytes were isolated using CD14 microbeads (catalog no. 130-050-201; Miltenyi) and cultured in X-VIVO10 medium (Lonza) supplemented with GM-CSF 1000 U/ml and M-CSF 100 ng/ml for 6 days. Monocytes were seeded at a cell count of 50,000 cells per well in a 96 well plate. After 6 days medium was replaced with X-VIVO10 w/o Cytokines. After 2 days Macrophages were treated with Compound 22 and/or its N-glucuronide metabolite o/n and next day infected with Yu-2 virus for 6 hrs, washed with PBS and cultured in medium containing the compounds for 12 days. Supernatant for p24 Elisa was collected 2 times a week. Cells were treated with 0.01 μM up to 30 μM and p24 antigen levels were monitored in culture supernatant over a 12 day period. Cell culture supernatant HIV p24 titration was performed by ELISA with Ingen Innotest kit (Ingen Ref 80564) according to the manufacturer's instructions.

[2] = test system: alternative splicing events of endogenous genes; assay: RT-PCR analysis of global alternative splicing events in PBMC samples; type: cell-based, human
From the text: Quantification of non-viral RNA splicing is achieved using the protocols detailed in […] et al. (Multiple alternative splicing markers for ovarian cancer. Cancer Res. 68, 657-663 (2008)) and Venables et al. (Cancer-associated regulation of alternative splicing. Nat. Struct. Mol. Biol. 16, 670-676 (2009)). […] These 382 alternative splicing events (ASEs) represent a high throughput random snapshot of global alterations of alternative splicing. We performed high throughput PCR analysis of these (essentially random) 382 ASEs on multiple PBMC samples, either from untreated (cells) or treated with DMSO, Compound 22 or with the control antiviral drug (Darunavir). Analysis of the data allowed further stringent quality controls; ASEs were only considered if >75% of the products ran at the expected mobilities (i.e. if the reactions were pure) and if total expected PCR concentration was higher than 20 nM (i.e. if the reactions were strong) which led to 264 remaining ASEs.

[3] = test system: lymphocyte populations (CD45+; CD4+ and CD8+); assay: Lymphocyte populations in engrafted humanized mice treated for 30 days; type: in vivo; conditions: 20 mg/kg or 40 mg/kg for one month, compared to controls without treatment
Procedure: C) Engrafted NSG humanized mice were treated by oral gavage with Compound 22 at either 20 mg or 40 mg/kg once a day for 30 days and indicated lymphocyte populations (CD45+; CD4+ and CD8+) were monitored by FACS analysis.
NOD.scid.IL2R−/− (NSG) mice were bred and maintained in individual ventilated cages and were fed autoclaved food and water.
Briefly, newborn (<5 days old) NSG mice received sub-lethal (1Gy) total body irradiation with a Cs source, and then received 2×105 transduced or untransduced CD34+ human HSCs using a 50 μl Hamilton syringe via the intrahepatic (i.h.) route. All manipulations of NSG-HIS mice were performed under laminar flow. […] Mice were monitored three times a week for symptoms or signs of adverse events, according to a standard score sheet.
Cell suspensions were labeled with anti-human monoclonal antibodies (mAb) targeting the following cell-surface markers: CD45-FITC, CD3-PE, CD4-Pe Cy7, CD8-BV421 and CD19-APC (all from Biolegend). Washing and reagent dilutions were done with FACS buffer (PBS containing 2% fetal calf serum and 0.05% sodium azide (NaN3). All acquisitions were performed on a Cyan ADP (Beckman Coulter) flow cytometer. Data were analyzed with FlowJo software (Ashland, Oreg.). Cellular debris and dead cells were excluded by their light-scattering characteristics.

HIV RNA splicing = assay: Sequence capture and 454 pyrosequencing of HIV RNA in infected PBMCs; type: cell-based, HIV-1
Procedure: To test whether Compound 22 influences the splicing of HIV RNA in infected cells, an array-based sequence capture was performed using a customized library probes targeting HIV sequences to get rid of cellular RNA. The probes were used to capture cDNAs prepared from infected treated and untreated PBMCs. After double capture, libraries were prepared and sequenced using 454 pyrosequencing (according to GS junior method manual). The average size of the reads around 400 bp allowed unambiguous assembly of viral genome from untreated sample (after 3 and 6 days of infection) using reads that were not mapped to human genome (hg19). All sequencing data were analysed using gsnap, as detailed in Wu et al. (Fast and SNP-tolerant detection of complex variants and splicing in short reads. Bioinformatics 26, 873-881 (2010)).

primary macrophages = assay: Cell viability of treated primary macrophages; type: cell-based, human; conditions: macrophages under treatment (data not shown)
Procedure: To generate monocyte derived macrophages (MDMs), monocytes were isolated using CD14 microbeads (catalog no. 130-050-201; Miltenyi) and cultured in X-VIVO10 medium (Lonza) supplemented with GM-CSF 1000 U/ml and M-CSF 100 ng/ml for 6 days. Monocytes were seeded at a cell count of 50,000 cells per well in a 96 well plate. After 6 days medium was replaced with X-VIVO10 w/o Cytokines. After 2 days Macrophages were treated with Compound 22 and/or its N-glucuronide metabolite o/n and next day infected with Yu-2 virus for 6 hrs, washed with PBS and cultured in medium containing the compounds for 12 days. Supernatant for p24 Elisa was collected 2 times a week.

HIV-1 genome (YU2) = assay: Deep sequencing of virus from treated infected primary macrophages and after amplification in PBMCs; type: cell-based; conditions: deep sequencing across HIV-1 genome, treated vs untreated samples
From the text: To test for emergence and/or selection of mutations associated with Compound 22 treatment, we applied a deep sequencing approach for sensitive detection of low-frequency viral variants across the entire HIV-1 genome. Viruses derived from treated and untreated infected primary macrophages of 4 different donors were sequenced and reads not aligning to human genome were aligned to YU2 sequence using gsnap, as detailed in Wu et al. (Fast and SNP-tolerant detection of complex variants and splicing in short reads. Bioinformatics 26, 873-881 (2010)).
To ascertain that amplification of viruses from treated samples will not mutate when amplified in PBMCs, they were sequenced following amplification with or without drug pressure.

With `FC(F)(F)Oc1ccc(Nc2ccc3cccc(Cl)c3n2)cc1` [Compound 22, 8-chloro-N-(4-(trifluoromethoxy)phenyl)quinolin-2-amine] the “inhibitory effect on HIV-1 subtypes (p24)” value [1] was “strong inhibitory effect”, the “viral load during treatment” value (YU2 HIV-1 virus; 40 mg/kg daily, 30 days of treatment) was “reduced the viral load” and the “time the viral load remained low after treatment termination” value (YU2 HIV-1 virus; after 30 days of treatment) was “at least 50 days”. For the same molecule, the inhibition at 0.1 µM (HIV-1 strain YU2) was at most 90%, the “global effect on pre-mRNA splicing” value [2] was “no global effect” and the “engraftment values of CD45+ cells and ratio of CD8+/CD4+” value [3] was “neither alters engraftment values of CD45+ cells nor the ratio of CD8+/CD4+”. For the same molecule, the “effect on spliced HIV RNA” value (HIV RNA splicing) was “favours spliced HIV RNA”, the “coverage of viral genome (number of reads)” value (HIV RNA splicing; 3 days post infection) was 4149 reads and the “reads corresponding to splice junctions” value (HIV RNA splicing; 3 days post-infection) was 17.4%. The number of reads (HIV RNA splicing; 6 days post-infection) was 20 585, the “reads corresponding to splice junctions” value (HIV RNA splicing; 6 days post-infection) was 13.3% and the cell viability (primary macrophages) was “not decreased”. The “selection of specific viral mutations” value (HIV-1 genome (YU2)) was “does not select for specific mutations; also recorded: unlikely to select for specific viral mutations” and the “selection of specific viral mutations” value (HIV-1 genome (YU2); listed as compound 22) was “do not select for HIV specific mutations”.
